# Measurements reported in patent publication US6340679B1, “Guanidine derivatives as inhibitors of cell adhesion” (Aventis Pharma Deutschland GmbH, priority 1999, dated 2002).
# Tests used:
# [1] = molecular target: T1, human vitronectin receptor αvβ3 (Homo sapiens, UniProt P05106+P06756); assay: Inhibition of the binding of kistrin to human vitronectin receptor (αvβ3 ELISA Test, K/VnR)
# T1 construct: Human vitronectin receptor was obtained from the human placenta; from tissue; host or cells: human placenta
# T1 sequence (P06756 31-889 limits assumed): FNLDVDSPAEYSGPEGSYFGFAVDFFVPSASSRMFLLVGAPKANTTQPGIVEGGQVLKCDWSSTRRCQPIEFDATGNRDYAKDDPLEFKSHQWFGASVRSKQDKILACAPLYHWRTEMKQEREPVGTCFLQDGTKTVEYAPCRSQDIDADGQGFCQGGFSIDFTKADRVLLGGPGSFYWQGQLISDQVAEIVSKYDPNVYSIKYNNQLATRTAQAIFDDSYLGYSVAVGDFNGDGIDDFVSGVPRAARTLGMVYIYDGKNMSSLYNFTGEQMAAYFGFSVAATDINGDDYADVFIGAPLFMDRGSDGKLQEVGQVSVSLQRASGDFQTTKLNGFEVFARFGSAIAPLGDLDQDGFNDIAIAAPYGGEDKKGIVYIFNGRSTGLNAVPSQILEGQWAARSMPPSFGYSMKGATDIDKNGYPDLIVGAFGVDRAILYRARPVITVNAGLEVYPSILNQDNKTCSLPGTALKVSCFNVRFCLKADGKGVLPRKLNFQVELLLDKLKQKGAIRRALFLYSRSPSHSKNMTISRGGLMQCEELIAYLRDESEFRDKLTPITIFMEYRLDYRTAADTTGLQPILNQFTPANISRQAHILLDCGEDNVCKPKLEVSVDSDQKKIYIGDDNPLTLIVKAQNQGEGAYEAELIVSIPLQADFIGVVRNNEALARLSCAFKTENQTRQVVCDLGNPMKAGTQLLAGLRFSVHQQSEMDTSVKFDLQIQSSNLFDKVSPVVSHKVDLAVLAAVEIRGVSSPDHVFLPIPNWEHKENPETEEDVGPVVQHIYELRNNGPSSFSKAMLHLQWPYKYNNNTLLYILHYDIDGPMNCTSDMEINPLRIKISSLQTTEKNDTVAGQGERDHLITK
# T1 sequence (P06756 891-1048 partner limits assumed): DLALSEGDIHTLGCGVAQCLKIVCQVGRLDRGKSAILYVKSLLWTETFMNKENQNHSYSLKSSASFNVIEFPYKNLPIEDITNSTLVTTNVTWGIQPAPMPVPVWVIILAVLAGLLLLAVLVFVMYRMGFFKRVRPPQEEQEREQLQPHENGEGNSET
# T1 sequence (P05106 27-788): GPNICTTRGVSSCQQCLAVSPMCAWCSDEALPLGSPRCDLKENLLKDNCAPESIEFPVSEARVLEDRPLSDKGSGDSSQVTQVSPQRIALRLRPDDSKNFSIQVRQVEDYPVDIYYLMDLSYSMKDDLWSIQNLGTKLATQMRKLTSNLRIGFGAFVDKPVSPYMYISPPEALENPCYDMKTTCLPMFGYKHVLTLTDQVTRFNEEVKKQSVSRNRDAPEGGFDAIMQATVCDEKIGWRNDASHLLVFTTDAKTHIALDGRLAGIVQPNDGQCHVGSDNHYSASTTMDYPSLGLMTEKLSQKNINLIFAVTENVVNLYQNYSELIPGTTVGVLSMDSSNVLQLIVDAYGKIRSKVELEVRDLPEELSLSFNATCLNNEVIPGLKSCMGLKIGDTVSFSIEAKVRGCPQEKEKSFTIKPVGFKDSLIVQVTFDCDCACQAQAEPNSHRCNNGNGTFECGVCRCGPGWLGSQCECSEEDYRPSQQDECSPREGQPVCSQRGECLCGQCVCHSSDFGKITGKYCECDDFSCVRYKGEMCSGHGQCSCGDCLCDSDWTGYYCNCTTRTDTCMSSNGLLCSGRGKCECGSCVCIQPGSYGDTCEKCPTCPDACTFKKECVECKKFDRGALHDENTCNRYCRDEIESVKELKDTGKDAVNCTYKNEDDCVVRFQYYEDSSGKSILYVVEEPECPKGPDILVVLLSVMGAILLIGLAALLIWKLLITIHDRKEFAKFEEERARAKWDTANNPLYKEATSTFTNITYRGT
# Excerpt: The inhibition of the binding of kistrin to human vitronectin receptor (VnR) described below is a test method by which, for example, the antagonistic action of the compounds according to the invention on the vitronectin receptor αvβ3 can be determined (αvβ3 ELISA Test; the test method is abbreviated as “K/VnR” in the listing of the test results).
# Kistrin was purified according to the methods of Dennis et al., as described in Proc. Natl. Acad. Sci. USA 87 (1989) 2471-2475 and PROTEINS: Structure, Function and Genetics 15 (1993) 312-321.
# Human vitronectin receptor was obtained from the human placenta according to the method of Pytela et al., Methods Enzymol. 144 (1987) 475. Human vitronectin receptor αvβ3 can also be obtained from some cell lines (for example from 293 cells, a human embryonic kidney cell line) which are co-transfected with DNA sequences for both subunits αv and β3 of the vitronectin receptor. The subunits are extracted with octyl glycoside and then chromatographed through concanavalin A, heparin-Sepharose and S-300.
# Murine monoclonal antibodies which are specific for the β3 subunits of the vitronectin receptor were prepared according to the method of Newman et al., Blood (1985) 227-232, or by a similar process. The rabbit Fab 2 anti-mouse Fc conjugate to horseradish peroxidase (anti-mouse Fc HRP) was obtained from Pel Freeze (Catalog No. 715 305-1).
# The ability of substances to inhibit the binding of kistrin to the vitronectin receptor can be determined using an ELISA test. For this purpose, Nunc 96-well microtiter plates were coated with a solution of kistrin (0.002 mg/ml) according to the method of Dennis et al., as described in PROTEINS: Structure, Function and Genetics 15 (1993) 312-321. The plates were then washed twice with PBS/0.05% Tween-20 and blocked by incubating (60 min) with bovine serum albumin (BSA, 0.5%, RIA grade or better) in buffer solution (Tris-HCl (50 mM), NaCl (100 mM), MgCl2 (1 mM), CaCl2 (1 mM), MnCl2 (1 mM), pH 7). Solutions of known inhibitors and of the test substances were prepared in concentrations from 2×10^−12 to 2×10^−6 mol/l in assay buffer (BSA (0.5%, RIA grade or better); Tris-HCl (50 mM), NaCl (100 mM), MgCl2 (1 mM), CaCl2 (1 mM), MnCl2 (1 mM), pH 7). The blocked plates were emptied, and in each case 0.025 ml of this solution which contained a defined concentration (2×10^−12 to 2×10^−6 mol/l ) either of a known inhibitor or of a test substance, were added to each well. 0.025 ml of a solution of the vitronectin receptor in assay buffer (0.03 mg/ml) was pipetted into each well of the plate and the plate was incubated at room temperature for 60-180 min on a shaker. In the meantime, a solution (6 ml/plate) of a murine monoclonal antibody specific for the β3 subunit of the vitronectin receptor was prepared in assay buffer (0.0015 mg/ml). A second rabbit antibody (0.001 ml of stock solution/6 ml of the murine monoclonal anti-β3 antibody solution) which was an anti-mouse Fc HRP antibody conjugate was added to this solution, and this mixture of murine anti-β3 antibody and rabbit anti-mouse Fc HRP antibody conjugate was incubated during the time of the receptor-inhibitor incubation. The test plates were washed four times with PBS solution which contained 0.05% Tween-20, and in each case 0.05 ml/well of the antibody mixture was pipetted into each well of the plate and incubated for 60-180 min. The plate was washed four times with PBS/0.05% Tween-20 and then developed with 0.05 ml/well of a PBS solution which contained 0.67 mg/ml of o-phenylenediamine and 0.012% of H2O2. Alternatively to this, o-phenylenediamine can be employed in a buffer (pH 5) which contains Na3PO4 and citric acid. The color development was stopped using 1 N H2SO4 (0.05 ml/well). The absorption for each well was measured at 492-405 nm and the data were evaluated by standard methods.
# [2] = molecular target: GP IIb/IIIa (Homo sapiens, UniProt P05106+P08514); assay: Fibrinogen-GP IIbIIIa Receptor ELISA Binding Assay (GP IIb/IIIa); conditions: read-out: GP IIb/IIla IC50
# Chain of GP IIb/IIIa (P08514 32-887 limits assumed): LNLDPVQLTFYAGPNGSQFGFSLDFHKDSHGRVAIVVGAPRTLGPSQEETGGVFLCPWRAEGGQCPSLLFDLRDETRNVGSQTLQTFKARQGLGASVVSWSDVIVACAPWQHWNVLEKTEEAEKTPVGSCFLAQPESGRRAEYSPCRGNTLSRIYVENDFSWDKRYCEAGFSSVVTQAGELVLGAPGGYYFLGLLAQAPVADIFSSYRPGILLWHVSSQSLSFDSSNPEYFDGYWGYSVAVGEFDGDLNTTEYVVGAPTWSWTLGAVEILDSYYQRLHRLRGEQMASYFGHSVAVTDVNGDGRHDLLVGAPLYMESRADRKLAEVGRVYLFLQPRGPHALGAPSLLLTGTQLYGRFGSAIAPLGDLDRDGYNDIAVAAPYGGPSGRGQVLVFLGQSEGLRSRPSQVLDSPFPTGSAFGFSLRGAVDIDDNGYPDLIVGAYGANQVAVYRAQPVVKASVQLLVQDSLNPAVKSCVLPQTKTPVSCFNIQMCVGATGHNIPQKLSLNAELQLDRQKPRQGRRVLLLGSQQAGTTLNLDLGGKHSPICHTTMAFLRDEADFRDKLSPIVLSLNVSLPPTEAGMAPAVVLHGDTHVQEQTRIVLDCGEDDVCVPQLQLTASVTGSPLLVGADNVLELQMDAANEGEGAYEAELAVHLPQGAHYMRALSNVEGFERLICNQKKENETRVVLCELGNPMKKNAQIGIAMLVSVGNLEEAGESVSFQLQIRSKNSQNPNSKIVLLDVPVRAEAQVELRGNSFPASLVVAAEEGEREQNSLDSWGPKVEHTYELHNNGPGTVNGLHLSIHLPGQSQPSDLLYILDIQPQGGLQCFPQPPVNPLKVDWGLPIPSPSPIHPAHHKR
# Chain of GP IIb/IIIa (P08514 891-1039 partner limits assumed): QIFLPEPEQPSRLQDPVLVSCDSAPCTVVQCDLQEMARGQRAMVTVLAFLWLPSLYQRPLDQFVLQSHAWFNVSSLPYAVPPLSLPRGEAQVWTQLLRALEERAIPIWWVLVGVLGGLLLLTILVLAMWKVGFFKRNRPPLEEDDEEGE
# Chain of GP IIb/IIIa (P05106 27-788): as the sequence (P05106 27-788) above
# Protocol: The test for inhibition of GP IIb/IIIa (“Fibrinogen-GP IIbIIIa Receptor ELISA Binding Assay”) was carried out as described in U.S. Pat. No. 5,403,836 which is incorporated herein by reference (the test method is abbreviated as “GP IIb/IIa” in the listing of the test results).
SMILES,IC50 [1] [nM],IC50 [2] [nM]
"O=C(CCCOc1ccc(C[C@H](NS(=O)(=O)c2cccs2)C(=O)O)cc1)NC1=NCCCN1 [Example 8, (2S)-3-{4-[3-(1,4,5,6-Tetrahydropyrimidin-2-ylcarbamoyl)-propoxy]-phenyl}-2-(thiophene-2-sulfonylamino)-propionic acid]",2.5,330
"O=C(CCCOc1ccc(C[C@H](NS(=O)(=O)c2ccc3ccccc3c2)C(=O)O)cc1)NC1=NCCCN1 [Example 1, (2S)-2-(Naphthalene-2-sulfonylamino)-3-{4-[3-(1,4,5,6-tetrahydropyrimidin-2-ylcarbamoyl)-propoxy]-phenyl}-propionic acid]",7.5,260
"O=C(CCCOc1ccc(C[C@H](NS(=O)(=O)c2ccc(C(F)(F)F)cc2)C(=O)O)cc1)NC1=NCCCN1 [Example 5, (2S)-3-{4-[3-(1,4,5,6-Tetrahydropyrimidin-2-ylcarbamoyl)-propoxy]-phenyl}-2-(4-trifluoromethylbenzenesulfonylamino)-propionic acid]",3.5,3150
"CCCCCCCCS(=O)(=O)N[C@@H](Cc1ccc(OCCCC(=O)NC2=NCCCN2)cc1)C(=O)O [Example 10, (2S)-2-(Octane-1-sulfonylamino)-3-{4-[3-(1,4,5,6-tetrahydropyrimidin-2-ylcarbamoyl)-propoxy]-phenyl}-propionic acid]",7.6,2400
"CCCCS(=O)(=O)N[C@@H](Cc1ccc(OCCCC(=O)NC2=NCCCN2)cc1)C(=O)O [Example 9, (2S)-2-(Butane-1-sulfonylamino)-3-{4-[3-(1,4,5,6-tetrahydropyrimidin-2-ylcarbamoyl)-propoxy]-phenyl}-propionic acid]",5.3,2100
"O=C(CCCOc1ccc(C[C@H](NS(=O)(=O)c2ccc(Br)cc2)C(=O)O)cc1)NC1=NCCCN1 [Example 7, (2S)-2-(4-Bromobenzenesulfonylamino)-3-{4-[3-(1,4,5,6-tetrahydropyrimidin-2-ylcarbamoyl)-propoxy]-phenyl}-propionic acid]",3.5,950
"Cc1ccc(S(=O)(=O)N[C@@H](Cc2ccc(OCCCC(=O)NC3=NCCCN3)cc2)C(=O)O)cc1 [Example 6, (2S)-3-{4-[3-(1,4,5,6-Tetrahydropyrimidin-2-ylcarbamoyl)-propoxy]-phenyl}-2-(toluene4-sulfonylamino)-propionic acid]",2.8,720
"O=C(CCCOc1ccc(C[C@H](NS(=O)(=O)c2ccccc2)C(=O)O)cc1)NC1=NCCCN1 [Example 4, (2S)-2-Benzenesulfonylamino-3-{4-[3-(1,4,5,6-tetrahydropyrimidin-2-ylcarbamoyl)-propoxy]-phenyl}-propionic acid]",2.8,410
"O=C(CCCOc1ccc(C[C@H](NS(=O)(=O)c2ccc(Cl)cc2)C(=O)O)cc1)NC1=NCCCN1 [Example 3, (2S)-2-(4-Chlorobenzenesulfonylamino)-3-{4-[3-(1,4,5,6-tetrahydropyrimidin-2-ylcarbamoyl)-propoxy]-phenyl}-propionic acid]",3,765
"O=C(CCCOc1ccc(C[C@H](NS(=O)(=O)c2cccc3ccccc23)C(=O)O)cc1)NC1=NCCCN1 [Example 2, (2S)-2-(Naphthalene-1-sulfonylamino)-3-{4-[3-(1,4,5,6-tetrahydropyrimidin-2-ylcarbamoyl)-propoxy]-phenyl}-propionic acid]",2.7,525
